# Test results as given in US20260274859A1, “FUSED POLYCYCLIC DERIVATIVE AND USE THEREOF” (ZHEJIANG HISUN PHARMACEUTICAL CO., LTD., priority 2023, published 2026).
# pIC50: −log10 of the molar value.
# Tests used:
# Assay type in all cases: cell-based
# HL60 cells = assay: Inhibition of proliferation of HL60 tumor cells (CCK8 or CTG); settings: Homo sapiens, HL-60
# Protocol: The effect of the compound of the present disclosure on the proliferation of tumor cells was determined using the following method. The HL60 cells used in the method were purchased from Nanjing Kebai Biotechnology Co., Ltd., and the kit was the Cell Counting Kit-8/CCK-8 kit of MCE Company (article number: HY—K0301, specification: 3000T).
# (1) HL60 cells in logarithmic growth phase were prepared into a cell suspension. The cell suspension was added into a 96-well plate at 5000 cells/well. The 96-well cell culture plate was placed in a CO2 incubator for 4 h of incubation of suspended cells or for 12 h of incubation of adherent cells.
# (2) The compounds to be tested were diluted with IMDM complete culture medium to reach a concentration twice the testing concentration, and added to the corresponding wells.
# (§1) (3) After the corresponding concentrations of the compounds to be tested were added, the plates were incubated in an incubator with 5% carbon dioxide at 37° C., and then the cell viability rate at each drug concentration was determined by CCK8 or CTG method. In addition, the IC50 value was calculated.
# A549 cells = assay: Inhibition of proliferation of A549 cells (CCK8 or CTG); settings: Homo sapiens, maximum concentration 10 μM, 5-fold dilution
# Protocol: (1) A549 cells in the logarithmic growth phase were digested with 0.25% trypsin and counted. The cells were inoculated into 96-well plates at 2000 cells per well, and the 96-well plates were placed in an incubator containing 5% CO2 at 37° C. for 12 h of culture.
# (§2) (2) Six concentration gradients for the compounds to be tested (with the maximum drug concentration of 10 μM and 5-fold dilution) were set. After the cells adhered to the wall, the compounds to be tested were serially diluted with DMSO, then diluted with 1640 complete medium to reach a concentration 1000 times the final concentration, and added to the corresponding wells.
# as §1
# HK-2 cells = assay: Inhibition of proliferation of HK-2 cells (normal cells; CCK8 or CTG); settings: Homo sapiens, maximum concentration 10 μM, 5-fold dilution
# Protocol: (1) HK-2 cells in the logarithmic growth phase were digested with 0.25% trypsin and counted. The cells were inoculated into 96-well plates at 2000 cells per well, and the 96-well plates were placed and cultured in an incubator containing 5% CO2 at 37° C. for 12 h.
# as §2, with “for the compound to be” for “for the compounds to be”
# as §1
SMILES,pIC50 (HL60 cells),pIC50 (A549 cells),pIC50 (HK-2 cells)
"COCCNC1CC(C(=O)Nc2sc3c(c2-c2nc4ccc(C5=CCNCC5)cc4s2)CCNC3)C1 (stereo not drawn) [Compound 119, 3-((2-methoxyethyl)amino)-N-(3-(6-(1,2,3,6-tetrahydropyridin-4-yl)benzo [d]thiazol-2-yl)-4,5,6,7-tetrahydrothieno[2,3-c]pyridin-2-yl)cyclobutane-1-carboxamide]",> 6.82,,
"CC(C)NC1CC(C(=O)Nc2sc3c(c2-c2nc4cc(C5=CCNCC5)ccc4s2)CCNC3)C1 (stereo not drawn) [Compound 022, 3-(isopropylamino)-N-(3-(5-(1,2,3,6-tetrahydropyridin-4-yl)benzo[d]thiazol-2-yl)-4,5,6,7-tetrahydrothieno [2,3-c]pyridin-2-yl) cyclobutane-1-carboxamide]",> 6.82,,
"CC(C)NC1CCC(C(=O)Nc2sc3c(c2-c2nc4ccc(-c5ccc(N6CCNCC6)nc5)cc4s2)CCNC3)C1 (stereo not drawn) [Compound 060, 3-(isopropylamino)-N-(3-(6-(6-(piperazin-1-yl)pyridin-3-yl)benzo[d]thiazol-2-yl)-4,5,6,7-tetrahydrothieno [2,3-c]pyridin-2-yl) cyclopentane-1-carboxamide]",,7.78,5.96
"CC(C)NCCNC(=O)Nc1sc2c(c1-c1nc3ccccc3s1)CCNC2 [Compound 077, 1-(3-(benzo[d]thiazol-2-yl)-4,5,6,7-tetrahydrothieno[2,3-c]pyridin-2-yl)-3-(2-(isopropylamino)ethyl) urea]",> 6.82,7.36,5.90
"Cc1cn(-c2ccc3sc(-c4c(NC(=O)C5CC(NC(C)C)C5)sc5c4CCNC5)nc3c2)cn1 (stereo not drawn) [Compound 121, 3-(isopropylamino)-N-(3-(5-(4-methyl-1H-imidazol-1-yl)benzo[d]thiazol-2-yl)-4,5,6,7-tetrahydrothieno [2,3-c]pyridin-2-yl) cyclobutane-1-carboxamide]",> 6.82,,6.14
"CC(C)NC1CCC(C(=O)Nc2sc3c(c2-c2nc4ccc(-c5ccc(N6CCNCC6)nc5)cc4s2)CCNC3)CC1 (stereo not drawn) [Compound 069, 4-(isopropylamino)-N-(3-(6-(6-(piperazin-1-yl)pyridin-3-yl)benzo[d]thiazol-2-yl)-4,5,6,7-tetrahydrothieno [2,3-c]pyridin-2-yl) cyclohexane-1-carboxamide]",> 6.82,8.11,5.61
"CC(C)NC1CC(C(=O)Nc2sc3c(c2-c2nc4ccc(C5=CCN(C)CC5)cc4s2)CCNC3)C1 (stereo not drawn) [Compound 017, 3-(isopropylamino)-N-(3-(6-(1-methyl-1,2,3,6-tetrahydropyridin-4-yl)benzo[d]thiazol-2-yl)-4,5,6,7-tetrahydrothieno[2,3-c]pyridin-2-yl)cyclobutane-1-carboxamide]",> 6.82,8.36,
"CC(C)NC1CCC(C(=O)Nc2sc3c(c2-c2nc4ccc(Br)cc4s2)CCNC3)CC1 (stereo not drawn) [Compound 123, N-(3-(6-bromobenzo[d]thiazol-2-yl)-4,5,6,7-tetrahydrothieno[2,3-c]pyridin-2-yl)-4-(isopropylamino) cyclohexane-1-carboxamide]",,,6.03
"COCCNCCC(=O)Nc1sc2c(c1-c1nc3cc(-n4cnc(C)c4)ccc3s1)CCNC2 [Compound a, reference compound]",5.82 to 6.82,7.13,6.28
"CC(C)NC1CCC(C(=O)Nc2sc3c(c2-c2nc4ccc(C5=CCNCC5)cc4s2)CCNC3)CC1 (stereo not drawn) [Compound 124, 4-(isopropylamino)-N-(3-(6-(1,2,3,6-tetrahydropyridin-4-yl)benzo[d]thiazol-2-yl)-4,5,6,7-tetrahydrothieno [2,3-c]pyridin-2-yl) cyclohexane-1-carboxamide]",,8.13,5.49
CC(=O)NC1CC(C(=O)Nc2sc3c(c2-c2nc4ccc(C5=CCN(C(C)=O)CC5)cc4s2)CCNC3)C1 (stereo not drawn) [Compound 141],,,5.84
"CN(C)CCNC(=O)CNc1sc2c(c1-c1nc3ccccc3s1)CCNC2 [Compound 086, 2-((3-(benzo[d]thiazol-2-yl)-4,5,6,7-tetrahydrothieno [2,3-c]pyridin-2-yl)amino)-N-(2-(dimethylamino)ethyl)acetamide]",,,5.12
"CC(C)NC1CC(C(=O)Nc2sc3c(c2-c2nc4ccc(-c5ccc(N6CCNCC6)nc5)cc4s2)CCNC3)C1 (stereo not drawn) [Compound 009, 3-(isopropylamino)-N-(3-(6-(6-(piperazin-1-yl)pyridin-3-yl)benzo[d]thiazol-2-yl)-4,5,6,7-tetrahydrothieno [2,3-c]pyridin-2-yl) cyclobutane-1-carboxamide]",> 6.82,9.28,
"Cc1cn(-c2ccc3nc(-c4c(NC(=O)C5CC(NC(C)C)C5)sc5c4CCNC5)sc3c2)cn1 (stereo not drawn) [Compound 014, 3-(isopropylamino)-N-(3-(6-(4-methyl-1H-imidazol-1-yl)benzo[d]thiazol-2-yl)-4,5,6,7-tetrahydrothieno[2,3-c]pyridin-2-yl)cyclobutane-1-carboxamide]",> 6.82,,
"CNCCNC(=O)C(=O)Nc1sc2c(c1-c1nc3ccc(C4=CCNCC4)cc3s1)CCNC2 [Compound 125, N^1-(2-(methylamino)ethyl)-N^2-(3-(6-(1,2,3,6-tetrahydropyridin-4-yl)benzo [d]thiazol-2-yl)-4,5,6,7-tetrahydrothieno[2,3-c]pyridin-2-yl)oxalamide]",,7.19,4.95
"CC(=O)N1CCc2c(sc(NC(=O)C3CC(NC(C)C)C3)c2-c2nc3ccc(-c4ccc(N5CCNCC5)nc4)cc3s2)C1 (stereo not drawn) [Compound 122, N-(6-acetyl-3-(6-(6-(piperazin-1-yl)pyridin-3-yl)benzo[d]thiazol-2-yl)-4,5,6,7-tetrahydrothieno[2,3-c]pyridin-2-yl)-3-(isopropylamino)cyclobutane-1-carboxamide]",,,5.98
"CC(C)NC1CC(C(=O)Nc2sc3c(c2-c2nc4ccc(-c5ccc(C6=CCNCC6)nc5)cc4s2)CCNC3)C1 (stereo not drawn) [Compound 047, 3-(isopropylamino)-N-(3-(6-(1′,2′,3′,6′-tetrahydro-[2, 4′-bipyridin]-5-yl)benzo [d]thiazol-2-yl)-4,5,6,7-tetrahydrothieno[2,3-c]pyridin-2-yl)cyclobutane-1-carboxamide]",> 6.82,7.74,5.79
"CC(C)(C)NC1CC(C(=O)Nc2sc3c(c2-c2nc4ccc(C5=CCNCC5)cc4s2)CCNC3)C1 (stereo not drawn) [Compound 120, 3-(tert-butylamino)-N-(3-(6-(1,2,3,6-tetrahydropyridin-4-yl)benzo[d]thiazol-2-yl)-4,5,6,7-tetrahydrothieno [2,3-c]pyridin-2-yl) cyclobutane-1-carboxamide]",> 6.82,8.56,6.12
"CC(C)NCCCNc1sc2c(c1-c1nc3ccc(-c4ccc(N5CCNCC5)nc4)cc3s1)CCNC2 [Compound 082, N^1-isopropyl-N^3-(3-(6-(6-(piperazin-1-yl)pyridin-3-yl)benzo[d]thiazol-2-yl)-4,5,6,7-tetrahydrothieno[2,3-c]pyridin-2-yl) propane-1,3-diamine]",,,5.35
"CC(C)NC1CC(C(=O)N(C)c2sc3c(c2-c2nc4ccc(-c5ccc(N6CCNCC6)nc5)cc4s2)CCNC3)C1 (stereo not drawn) [Compound 134, 3-(isopropylamino)-N-methyl-N-(3-(6-(6-(piperazin-1-yl)pyridin-3-yl)benzo [d]thiazol-2-yl)-4,5,6,7-tetrahydrothieno[2,3-c]pyridin-2-yl)cyclobutane-1-carboxamide]",,9.18,
"CC(C)NC1CC(C(=O)Nc2sc3c(c2-c2nc4ccccc4s2)CCNC3)C1 (stereo not drawn) [Compound 001, N-(3-(benzo[d]thiazol-2-yl)-4,5,6,7-tetrahydrothieno[2,3-c]pyridin-2-yl)-3-(isopropylamino)cyclobutane-1-carboxamide]",,9.31,6.12
"CN1CCN(c2sc3c(c2-c2nc4ccc(-c5ccc(N6CCNCC6)nc5)cc4s2)CCNC3)CC1 [Compound 126, 2-(2-(4-methylpiperazin-1-yl)-4,5,6,7-tetrahydrothieno [2,3-c]pyridin-3-yl)-6-(6-(piperazin-1-yl)pyridin-3-yl)benzo[d]thiazole]",,,5.93
"CC(C)NCCC(=O)Nc1sc2c(c1-c1nc(-c3ccccc3)cs1)CCNC2 [Compound b, reference compound]",,7.01,6.62
"CC(C)NC1CC(C(=O)Nc2sc3c(c2-c2nc4ccc(C5=CCNCC5)cc4s2)CCN(C2CCCC2)C3)C1 (stereo not drawn) [Compound 054, N-(6-cyclopentyl-3-(6-(1,2,3,6-tetrahydropyridin-4-yl)benzo[d]thiazol-2-yl)-4,5,6,7-tetrahydrothieno[2,3-c]pyridin-2-yl)-3-(isopropylamino)cyclobutane-1-carboxamide]",,7.66,
